Measurements from patent US7008927B2, “Pralmorelin-containing nasal drop preparations” (Kaken Pharmaceutical Co., Ltd., priority 2000, dated 2006).
Where a SMILES comes first, the peptide text is derived from it. [ ]: non-standard residue; d: D form. d2Nal = N[C@H](Cc1ccc2ccccc2c1)C(=O)O

What was measured:
[1] = Saturated solubility in physiological saline; assay type: physicochemical; conditions: 25° C., as dihydrochloride
Experimental: To be more specific, pralmorelin has low saturated solubility in physiological saline (0.15 w/v % at 25° C. when it is dihydrochloride) and at higher concentrations, pralmorelin becomes insoluble with the lapse of time and a problem occurs in terms of storage stability, thus making it difficult to formulate pralmorelin pharmaceutically using physiological saline. Even at concentrations lower than its saturated solubility, pralmorelin has low in vivo absorption and needs frequent administration.

[2] = In vivo absorption after intranasal administration to rats (plasma concentration, two-antibody competition method); conditions: Crj:CD (SD), rat; for Tmax: male rats; for AUC / Cmax / bioavailability: male
Experimental: With an isotonic solution (in distilled water) of 5 w/v % D-mannitol or physiological saline used as a solvent, a solution of 0.1 w/v % pralmorelin dihydrochloride was prepared and administered to male rats (7-week old, Crj:CD (SD) strain, N=3) in an amount of 50 μg/kg.
With the rats fixed supine under an unanesthetized condition, the pralmorelin solution was administered into one nostril of each rat in an amount of 50 μg/kg with a micropipette. The rats were not anesthetized for two reasons: actual drug administration is effected without anesthesia; the effects anesthetization would have on drug absorption have not been elucidated.
The concentration of an unchanged substance in plasma was measured in accordance with the two-antibody competition method of Kitagawa et al. summarized below [J. Assoc. Off. Anal. Chem., Vol. 68, No. 4, pp. 661–664 (1985) and J. Immunological Methods, 72, pp. 109–118 (1984)].
Anti-rabbit IgG goat IgG (Jackson Immuno Research) as the second antibody was adsorbed on an ELISA 96-well microplate (GREINER). Then, anti-pralmorelin dihydrochloride rabbit serum was adsorbed on the same microplate; the serum was the first antibody and had been obtained by subcutaneous injection of rabbits with an immunogen having pralmorelin dihydrochloride bound to bovine serum albumin (Sigma) by means of water-soluble carbodiimide (Nakarai Tesk).
Pralmorelin dihydrochloride contained in a sample was allowed to compete for pralmorelin labeled β-galactosidase that had been crosslinked with crosslinker N-(m-maleimidebenzoyloxy)succinimide (Nakaral Tesk); then, the β-galactosidase bound to the first antibody was reacted with 4-methylumbelliferyl-β-D-galactopyranoside; thereafter, the enzymatic activity of the β-galactosidase bound to the first antibody was measured at an excitation wavelength of 370 nm and a fluorescence wavelength of 460 nm.
From the measured values for the enzymatic activity of the β-galactosidase, the maximum plasma drug concentration (Cmax) of pralmorelin dihydrochloride, the area under the plasma drug concentration vs time curve (AUC) and the bioavailability (the ratio of AUC obtained by intranasal administration to AUC obtained by intravenous administration) were obtained.
Two kinds of preparation for intranasal administration, one consisting of pralmorelin dihydrochloride and distilled water and the other further containing D-mannitol at varying concentrations, were evaluated for their effects on in vivo absorption of pralmorelin dihydrochloride. With four kinds of solvent, distilled water, 2.5 w/v % D-mannitol solution (osmolarity ratio, 0.5), 5 w/v % D-mannitol solution (osmolarity ratio, 1), 10 w/v % D-mannitol solution (osmolarity ratio, 2), solutions of 0.4 w/v % pralmorelin dihydrochloride were prepared and administered in an amount of 50 μg/kg to male rats as in Example 1.
With an aqueous solution of 0.005 w/v % benzalkonium chloride used as a base, pralmorelin preparations for intranasal administration were made at three concentrations, 0.1 w/v %, 0.3 w/v % and 1.0 w/v %, of pralmorelin dihydrochloride. Each preparation was dripped into the right nostril of 5-week old male Crj:CD (SD) rats (N=3). The dose of administration was 0.1 mg/kg, 0.3 mg/kg and 1.0 mg/kg for the respective preparations, which were all administered in a volume of 0.1 ml/kg.

[3] = inhaled or intranasal, 50 ug/kg, intranasal 50 μg/kg, 0.1 w/v % solution in 5 w/v % D-mannitol
[4] = inhaled or intranasal, 50 ug/kg, intranasal 50 μg/kg, 0.1 w/v % solution in physiological saline
[5] = inhaled or intranasal, 50 ug/kg, intranasal 50 μg/kg, 0.4 w/v % solution in 2.5 w/v % D-mannitol (osmolarity ratio 0.5)
[6] = inhaled or intranasal, 50 ug/kg, intranasal 50 μg/kg, 0.4 w/v % solution in 5 w/v % D-mannitol (osmolarity ratio 1)
[7] = inhaled or intranasal, 50 ug/kg, intranasal 50 μg/kg, 0.4 w/v % solution in 10 w/v % D-mannitol (osmolarity ratio 2)
[8] = inhaled or intranasal, 50 ug/kg, intranasal 50 μg/kg, 0.4 w/v % solution in distilled water
[9] = inhaled or intranasal, 0.1 mg/kg, intranasal 0.1 mg/kg, 0.1 w/v % in aqueous 0.005 w/v % benzalkonium chloride, 0.1 ml/kg
[10] = inhaled or intranasal, 0.3 mg/kg, intranasal 0.3 mg/kg, 0.3 w/v % in aqueous 0.005 w/v % benzalkonium chloride, 0.1 ml/kg
[11] = inhaled or intranasal, 1 mg/kg, intranasal 1.0 mg/kg, 1.0 w/v % in aqueous 0.005 w/v % benzalkonium chloride, 0.1 ml/kg

For C[C@H](NC(=O)[C@@H](Cc1ccc2ccccc2c1)NC(=O)[C@@H](C)N)C(=O)N[C@@H](Cc1c[nH]c2ccccc12)C(=O)N[C@H](Cc1ccccc1)C(=O)N[C@@H](CCCCN)C(N)=O.Cl.Cl [pralmorelin dihydrochloride, D-alanyl-3-(naphthalen-2-yl)-D-alanyl-L-alanyl-L-tryptophyl-D-phenylalanyl-L-lysinamide dihydrochloride] (H-[dA][d2Nal]AW[dF]K-NH2), which “saturated solubility in physiological saline” value [1] is on record?
Its value is 0.15 w/v %.

What about the Tmax ([2]; inhaled or intranasal, intranasal 0.1 mg/kg, 0.1 w/v % in aqueous 0.005 w/v % benzalkonium chloride, 0.1 ml/kg) of the same molecule?
Its Tmax is 10.2 min.

And the Tmax ([2]; inhaled or intranasal, intranasal 0.3 mg/kg, 0.3 w/v % in aqueous 0.005 w/v % benzalkonium chloride, 0.1 ml/kg)?
The Tmax was 10.2 min.

What about the Tmax ([2]; inhaled or intranasal, intranasal 1.0 mg/kg, 1.0 w/v % in aqueous 0.005 w/v % benzalkonium chloride, 0.1 ml/kg) of the same molecule?
Its Tmax is 10.2 min.

What about the AUC [2, 3] of the same molecule?
The AUC was 2.71 ng·h/mL.

What about the Cmax [2, 3] of the same molecule?
Its Cmax is 2.37 ng/mL.

What about the AUC [2, 4] of the same molecule?
Its AUC is 1.98 ng·h/mL.

And the Cmax [2, 4]?
The Cmax was 0.7 ng/mL.

And the Cmax [2, 5]?
The Cmax was 55.8 ng/mL.

What about the bioavailability [2, 5] of the same molecule?
The bioavailability was 22.1%.

And the Cmax [2, 6]?
The Cmax was 49.2 ng/mL.

What about the bioavailability [2, 6] of the same molecule?
Its bioavailability is 19%.

What about the Cmax [2, 7] of the same molecule?
Its Cmax is 21.7 ng/mL.

What about the bioavailability [2, 7] of the same molecule?
The bioavailability was 9%.

And the Cmax [2, 8]?
The Cmax was 60.7 ng/mL.

What about the bioavailability [2, 8] of the same molecule?
Its bioavailability is 26.2%.

And the AUC [2, 9]?
Its AUC is 14.5 ng·h/mL.

And the Cmax [2, 9]?
The Cmax was 18 ng/mL.

And the AUC [2, 10]?
The AUC was 48.1 ng·h/mL.

What about the Cmax [2, 10] of the same molecule?
The Cmax was 72.8 ng/mL.

And the AUC [2, 11]?
Its AUC is 250 ng·h/mL.

What about the Cmax [2, 11] of the same molecule?
The Cmax was 502 ng/mL.

What about the bioavailability ([2]; other: intranasal, 50 ug/kg, intranasal 50 μg/kg, 0.1 w/v % solution in 5 w/v % D-mannitol, AUC intranasal / AUC intravenous) of the same molecule?
Its bioavailability is 4.22%.

What about the bioavailability ([2]; other: intranasal, 50 ug/kg, intranasal 50 μg/kg, 0.1 w/v % solution in physiological saline, AUC intranasal / AUC intravenous) of the same molecule?
Its bioavailability is 3.08%.
